Measurements published in ChEMBL document CHEMBL4049438, “Discovery and Optimization of Isoquinoline Ethyl Ureas as Antibacterial Agents” (J Med Chem, 2017).
Converted amounts (≈) assume the structure as drawn.

What was measured:
[1] = Inhibition of Staphylococcus aureus topoisomerase 4 subunit ParC/ParE relaxation expressed in Escherichia coli BL21 (DE3) using supercoiled pBR322 DNA as substrate after 1 hr by agarose gel electrophoresis
Staphylococcus aureus [2] = assay: Antibacterial activity against Staphylococcus aureus ATCC 29213 by broth microdilution method; format: functional
Staphylococcus aureus [3] = assay: Antibacterial activity against methicillin-sensitive Staphylococcus aureus A-1178 infected in neutropenic mouse assessed as change in bacterial burden in thighs at 30 mg/kg, po administered every 2.75 hrs for 2 times measured 6.5 hrs post infection; format: functional
hERG (KCNH2) = hERG (KCNH2) (Homo sapiens, UniProt Q12809); assay: Inhibition of human ERG expressed in CHO cells at 10 uM after 3 mins at -80 mV holding potential by Qpatch assay; format: cell-based; settings: CHO cells expressing human ERG
[4] = Octanol-phosphate buffer partition coefficient, logD of compound at pH 7.4 by LC/UV analysis; format: physicochemical
[5] = AUC in mouse at 100 mg/kg, po after 24 hrs by LC-MS/MS analysis; format: ADME, organism-based; parameters: time < 24 hr, dose 100 mg/kg, route oral; settings: in vivo
[6] = Protein binding to mouse plasma by rapid equilibrium dialysis method; format: ADME, cell-free; settings: read-out: PPB (converted)
Mus musculus [7] = assay: Unbound AUC in mouse at 100 mg/kg, po after 24 hrs by LC-MS/MS analysis; format: ADME, organism-based; settings: in vivo
Staphylococcus aureus [8] = assay: Antibacterial activity against methicillin-sensitive Staphylococcus aureus A-1178 by broth microdilution method; format: functional
[9] = Dissociation constant, pKa of the compound by pH metric assay; format: physicochemical
DNA gyrase = DNA gyrase (Staphylococcus aureus, UniProt P0A0K8+P20831)
[10] = AUC in mouse at 30 mg/kg, po after 24 hrs by LC-MS/MS analysis; format: ADME, organism-based; parameters: time < 24 hr, dose 30 mg/kg, route oral; settings: in vivo
Mus musculus [11] = assay: Unbound AUC in mouse at 30 mg/kg, po after 24 hrs by LC-MS/MS analysis; format: ADME, organism-based; settings: in vivo
Staphylococcus aureus [12] = assay: Antibacterial activity against methicillin-sensitive Staphylococcus aureus A-1178 infected in neutropenic murine thigh infection model assessed as decrease in bacterial load in thighs administered po 22 hrs post infection measured 24 hrs post infection; format: functional, organism-based
[13] = Inhibition of Escherichia coli N-terminal His6-tagged DNA gyrase subunit GyrA/GyrB supercoiling activity expressed in Escherichia coli BL21 (DE3) using relaxed pBR322 DNA as substrate after 1 hr by agarose gel electrophoresis
[14] = Inhibition of Escherichia coli DNA topoisomerase 4 subunit ParC/ParE relaxation expressed in Escherichia coli BL21 (DE3) using supercoiled pBR322 DNA as substrate after 1 hr by agarose gel electrophoresis
Escherichia coli [15] = assay: Antibacterial activity against TolC deficient Escherichia coli by broth microdilution method; format: functional
Escherichia coli [16] = assay: Antibacterial activity against Escherichia coli ATCC 25922 by broth microdilution method; format: functional
Staphylococcus aureus [17] = assay: Antibacterial activity against methicillin/fluoroquinolone-resistant Staphylococcus aureus A-798 harboring topoisomerase gyrA S84L mutant/grlA S80F/Glu84V mutant by broth microdilution method; format: functional
Streptococcus pneumoniae [18] = assay: Antibacterial activity against Streptococcus pneumoniae ATCC 49619 by broth microdilution method; format: functional
Streptococcus pneumoniae [19] = assay: Antibacterial activity against fluoroquinolone-resistant Streptococcus pneumoniae A-70 harboring topoisomerase gyrA S81F mutant/parc S79F mutant/parE I440V mutant by broth microdilution method; format: functional
Streptococcus pyogenes = assay: Antibacterial activity against Streptococcus pyogenes ATCC 19615 by broth microdilution method; format: functional
Enterococcus faecalis = assay: Antibacterial activity against Enterococcus faecalis ATCC 29212 by broth microdilution method; format: functional
Enterococcus faecium = assay: Antibacterial activity against vancomycin/fluoroquinolone-resistant Enterococcus faecium A-949 harboring topoisomerase gyrA E88K mutant/parC S80R mutant by broth microdilution method; format: functional
Moraxella catarrhalis = assay: Antibacterial activity against Moraxella catarrhalis A-894 by broth microdilution method; format: functional
Haemophilus influenzae = assay: Antibacterial activity against Haemophilus influenzae A-921 by broth microdilution method; format: functional
[20] = Inhibition of fluoroquinolone-resistant Staphylococcus aureus clinical isolate DNA gyrase subunit GyrB/GyrA S84L mutant supercoiling activity using relaxed pBR322 DNA as substrate after 1 hr by agarose gel electrophoresis
[21] = Inhibition of Streptococcus pneumoniae DNA gyrase subunit GyrA/GyrB supercoiling activity expressed in Escherichia coli BL21 (DE3) using relaxed pBR322 DNA as substrate after 1 hr mins by agarose gel electrophoresis
[22] = Inhibition of Streptococcus pneumoniae DNA topoisomerase 4 subunit ParC/ParE relaxation expressed in Escherichia coli BL21 (DE3) using supercoiled pBR322 DNA as substrate after 1 hr mins by agarose gel electrophoresis
[23] = Inhibition of Haemophilus influenzae DNA gyrase subunit GyrA/GyrB supercoiling activity expressed in Escherichia coli BL21 (DE3) using relaxed pBR322 DNA as substrate after 1 hr mins by agarose gel electrophoresis
[24] = Inhibition of Haemophilus influenzae DNA topoisomerase 4 subunit ParC/ParE relaxation expressed in Escherichia coli BL21 (DE3) using supercoiled pBR322 DNA as substrate after 1 hr mins by agarose gel electrophoresis
[25] = target: DNA topoisomerase 2-alpha (Homo sapiens, UniProt P11388); assay: Inhibition of human DNA topoisomerase 2-alpha
Staphylococcus aureus [26] = assay: Selectivity ratio of IC50 for Staphylococcus aureus topoisomerase 4 subunit ParC/ParE relaxation to IC50 for Staphylococcus aureus N-terminal His6-tagged DNA gyrase subunit GyrA/GyrB supercoiling activity
Escherichia coli [27] = assay: Selectivity ratio of IC50 for Escherichia coli DNA topoisomerase 4 subunit ParC/ParE relaxation to IC50 for Escherichia coli N-terminal His6-tagged DNA gyrase subunit GyrA/GyrB supercoiling activity
Staphylococcus aureus [28] = assay: Antibacterial activity against methicillin-sensitive Staphylococcus aureus A-1178 infected in neutropenic mouse thigh infection model assessed as decrease in bacterial load in thighs administered po every 5.5 hrs for 4 times measured after 24 hrs; format: functional, organism-based
[29] = Inhibition of Escherichia coli DNA gyrase subunit GyrA/GyrB R136H mutant supercoiling activity expressed in Escherichia coli BL21 (DE3) using relaxed pBR322 DNA as substrate after 1 hr mins by agarose gel electrophoresis
[30] = Solubility of compound in phosphate buffer at pH 7; format: physicochemical
[31] = Solubility of compound in citrate buffer at pH 4; format: physicochemical
[32] = AUC in Wistar rat at 0.5 mg/kg, iv administered as solution up to 24 hrs by LC-MS/MS analysis; format: ADME, organism-based; parameters: dose 0.5 mg/kg, time < 24 hr, route intravenous; settings: in vivo
[33] = Clearance in Wistar rat at 0.5 mg/kg, iv administered as solution up to 24 hrs by LC-MS/MS analysis; format: ADME, organism-based; settings: in vivo
[34] = Half life in Wistar rat at 0.5 mg/kg, iv administered as solution up to 24 hrs by LC-MS/MS analysis; format: ADME, organism-based; settings: in vivo
[35] = Volume of distribution in steady state in Wistar rat at 0.5 mg/kg, iv administered as solution up to 24 hrs by LC-MS/MS analysis; format: ADME, organism-based; settings: in vivo, read-out: Vdss
[36] = AUC in Wistar rat at 2 mg/kg, po administered as suspension up to 24 hrs by LC-MS/MS analysis; format: ADME, organism-based; parameters: dose 2 mg/kg, time < 24 hr, route oral; settings: in vivo
[37] = Cmax in Wistar rat at 2 mg/kg, po administered as suspension up to 24 hrs by LC-MS/MS analysis; format: ADME, organism-based; parameters: dose 2 mg/kg, route oral; settings: in vivo
[38] = Tmax in Wistar rat at 2 mg/kg, po administered as suspension up to 24 hrs by LC-MS/MS analysis; format: ADME, organism-based; settings: in vivo
[39] = Oral bioavailability in Wistar rat at 2 mg/kg administered as suspension up to 24 hrs by LC-MS/MS analysis; format: ADME, organism-based; settings: in vivo
Staphylococcus aureus [40] = assay: Antibacterial activity against methicillin-sensitive Staphylococcus aureus A-1178 infected in neutropenic mouse assessed as change in bacterial burden in thighs at 10 mg/kg, po administered every 2.75 hrs for 2 times measured 6.5 hrs post infection; format: functional

CCNC(=O)Nc1cc2c(-c3ccnc(C)c3)ccc(COC(=O)N3CCN(C)CC3)c2cn1
IC50 [1]: 500 nM
MIC (Staphylococcus aureus [2]): 0.5 µg/mL (≈ 1.08 µM)
Activity (Staphylococcus aureus [3]): -0.3 deltalog10CFU
inhibition at 0.05 h, 10 µM (hERG (KCNH2)): 15%
logD [4]: 3.1
AUC at 24 h [5]: 9200 ng·h/mL
fraction unbound [6]: 0.052
fAUC (Mus musculus [7]): 480 ng·h/mL
MIC (Staphylococcus aureus [8]): 0.5 µg/mL (≈ 1.08 µM)
pKa [9]: 7
IC50 (DNA gyrase): 8 nM

CCNC(=O)Nc1cc2c(-c3ccnc(C)c3)ccc(CNC(C)=O)c2cn1
IC50 [1]: 2000 nM
MIC (Staphylococcus aureus [2]): 0.5 µg/mL (≈ 1.32 µM)
Activity (Staphylococcus aureus [3]): 0 deltalog10CFU
inhibition at 0.05 h, 10 µM (hERG (KCNH2)): 4%
logD [4]: 2.6
AUC at 24 h [10]: 120 ng·h/mL
fraction unbound [6]: 0.123
fAUC (Mus musculus [11]): 15 ng·h/mL
MIC (Staphylococcus aureus [8]): 0.5 µg/mL (≈ 1.32 µM)
IC50 (DNA gyrase): 8 nM

CC(=O)NC[C@H]1CN(c2ccc(N3CCOCC3)c(F)c2)C(=O)O1
Activity (Staphylococcus aureus [12]): Dose-dependent effect

CCNC(=O)Nc1cc2c(-c3ccnc(C)c3)ccc(Nc3ccc(C)nc3)c2cn1
IC50 [13]: 30 nM
IC50 [14]: 2000 nM
IC50 [1]: 125 nM
MIC (Escherichia coli [15]): 0.5 µg/mL (≈ 1.21 µM)
MIC (Staphylococcus aureus [2]): ≤ 0.03 µg/mL
MIC (Escherichia coli [16]): > 16 µg/mL
Activity (Staphylococcus aureus [3]): -0.2 deltalog10CFU
MIC (Staphylococcus aureus [17]): ≤ 0.03 µg/mL
MIC (Streptococcus pneumoniae [18]): 0.125 µg/mL (≈ 0.303 µM)
MIC (Streptococcus pneumoniae [19]): 0.125 µg/mL (≈ 0.303 µM)
MIC (Streptococcus pyogenes): 0.125 µg/mL (≈ 0.303 µM)
MIC (Enterococcus faecalis): ≤ 0.03 µg/mL
MIC (Enterococcus faecium): 0.06 µg/mL (≈ 0.145 µM)
MIC (Moraxella catarrhalis): 0.25 µg/mL (≈ 0.606 µM)
MIC (Haemophilus influenzae): 0.25 µg/mL (≈ 0.606 µM)
IC50 [20]: < 4 nM
IC50 [21]: 125 nM
IC50 [22]: 30 nM
IC50 [23]: 30 nM
IC50 [24]: 125 nM
IC50 [25]: > 256000 nM
Ratio IC50 (Staphylococcus aureus [26]): 16
Ratio IC50 (Escherichia coli [27]): 60
IC50 (DNA gyrase): 8 nM

CCNC(=O)Nc1cc2c(-c3ccnc(C)c3)ccc(CNC(=O)OCCOC)c2cn1
IC50 [1]: 2000 nM
MIC (Staphylococcus aureus [2]): 0.125 µg/mL (≈ 0.286 µM)
Activity (Staphylococcus aureus [3]): -1.3 deltalog10CFU
inhibition at 0.05 h, 10 µM (hERG (KCNH2)): 20%
logD [4]: 3
AUC at 24 h [5]: 14000 ng·h/mL
fraction unbound [6]: 0.045
fAUC (Mus musculus [7]): 630 ng·h/mL
MIC (Staphylococcus aureus [8]): 0.125 µg/mL (≈ 0.286 µM)
IC50 (DNA gyrase): 8 nM

CCNC(=O)Nc1cc2c(-c3ccnc(C)c3)ccc(CNC(=O)OC)c2cn1
IC50 [13]: 30 nM
IC50 [14]: 8000 nM
IC50 [1]: 2000 nM
MIC (Escherichia coli [15]): 1 µg/mL (≈ 2.54 µM)
MIC (Staphylococcus aureus [2]): 0.06 µg/mL (≈ 0.152 µM)
MIC (Escherichia coli [16]): > 16 µg/mL
Activity (Staphylococcus aureus [3]): -3.5 deltalog10CFU
MIC (Staphylococcus aureus [17]): 0.06 µg/mL (≈ 0.152 µM)
MIC (Streptococcus pneumoniae [18]): 0.5 µg/mL (≈ 1.27 µM)
MIC (Streptococcus pneumoniae [19]): 1 µg/mL (≈ 2.54 µM)
MIC (Streptococcus pyogenes): 0.5 µg/mL (≈ 1.27 µM)
MIC (Enterococcus faecalis): 0.25 µg/mL (≈ 0.635 µM)
MIC (Enterococcus faecium): 1 µg/mL (≈ 2.54 µM)
MIC (Moraxella catarrhalis): 0.5 µg/mL (≈ 1.27 µM)
MIC (Haemophilus influenzae): 2 µg/mL (≈ 5.08 µM)
IC50 [20]: < 4 nM
Activity (Staphylococcus aureus [28]): Dose-dependent effect
IC50 [21]: 500 nM
IC50 [22]: 125 nM
IC50 [24]: 2000 nM
IC50 [29]: 125 nM
IC50 [25]: > 256000 nM
solubility [30]: 20 µg/mL (≈ 50.8 µM)
solubility [31]: 340 µg/mL (≈ 864 µM)
inhibition at 0.05 h, 10 µM (hERG (KCNH2)): 67%
AUC at 24 h [32]: 261 ng·h/mL
clearance [33]: 32 mL/min/kg
half-life [34]: 36 min
Vd [35]: 0.65 L/kg
AUC at 24 h [36]: 319 ng·h/mL
Cmax [37]: 287 ng/mL
Tmax [38]: 15 min
bioavailability [39]: 30%
logD [4]: 3.1
AUC at 24 h [10]: 45300 ng·h/mL
fraction unbound [6]: 0.035
fAUC (Mus musculus [11]): 1590 ng·h/mL
MIC (Staphylococcus aureus [8]): 0.06 µg/mL (≈ 0.152 µM)
Activity (Staphylococcus aureus [40]): -2.5 deltalog10CFU
IC50 (DNA gyrase): 8 nM
